Laboratory results as given in PubChem BioAssay (NCI).
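Abbreviation: GI50, concentration required for 50% inhibition of growth. The concentration for full growth arrest is given as TGI.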

How the values were obtained:
Test in all cases: growth of human tumour cells (NCI), 384-well format
SF-268 CNS = tested on: SF-268 CNS
NCI-H522 lung = tested on: NCI-H522 lung
MDA-MB-435 melanoma = tested on: MDA-MB-435 melanoma
MALME-3M melanoma = tested on: MALME-3M melanoma
OVCAR-5 ovarian = tested on: OVCAR-5 ovarian
RXF 393 renal = tested on: RXF 393 renal
PC-3 prostate = tested on: PC-3 prostate
NCI-H226 lung = tested on: NCI-H226 lung
NCI-H322M lung = tested on: NCI-H322M lung
T-47D breast = tested on: T-47D breast
CAKI-1 renal = tested on: CAKI-1 renal
K-562 leukemia = tested on: K-562 leukemia
CCRF-CEM leukemia = tested on: CCRF-CEM leukemia
MOLT-4 leukemia = tested on: MOLT-4 leukemia
HOP-62 NSCLC = tested on: HOP-62 NSCLC
SNB-19 CNS = tested on: SNB-19 CNS
SK-MEL-28 melanoma = tested on: SK-MEL-28 melanoma
SNB-75 CNS = tested on: SNB-75 CNS
DU-145 prostate = tested on: DU-145 prostate
HT29 colon = tested on: HT29 colon
HCC-2998 colon = tested on: HCC-2998 colon
OVCAR-4 ovarian = tested on: OVCAR-4 ovarian
MCF7 breast = tested on: MCF7 breast
OVCAR-3 ovarian = tested on: OVCAR-3 ovarian
SF-539 CNS = tested on: SF-539 CNS
SF-295 CNS = tested on: SF-295 CNS
UACC-257 melanoma = tested on: UACC-257 melanoma
OVCAR-8 ovarian = tested on: OVCAR-8 ovarian
SN12C renal = tested on: SN12C renal
HOP-92 NSCLC = tested on: HOP-92 NSCLC
U251 glioblastoma = tested on: U251 glioblastoma
TK-10 renal = tested on: TK-10 renal
SK-MEL-5 melanoma = tested on: SK-MEL-5 melanoma
BT-549 breast = tested on: BT-549 breast
SK-OV-3 ovarian = tested on: SK-OV-3 ovarian
SW-620 colon = tested on: SW-620 colon
NCI/ADR-RES ovarian = tested on: NCI/ADR-RES ovarian
NCI-H460 NSCLC = tested on: NCI-H460 NSCLC
A498 renal = tested on: A498 renal
KM12 colon = tested on: KM12 colon
UO-31 renal = tested on: UO-31 renal
HL-60(TB) leukemia = tested on: HL-60(TB) leukemia
HCT-15 colon = tested on: HCT-15 colon
ACHN renal = tested on: ACHN renal
SR leukemia = tested on: SR leukemia
A549 NSCLC = tested on: A549 NSCLC
EKVX NSCLC = tested on: EKVX NSCLC
MDA-MB-231 breast = tested on: MDA-MB-231 breast
IGROV1 ovarian = tested on: IGROV1 ovarian
NCI-H23 lung = tested on: NCI-H23 lung
LOX IMVI melanoma = tested on: LOX IMVI melanoma
MDA-MB-468 breast = tested on: MDA-MB-468 breast
HS 578T breast = tested on: HS 578T breast
M14 melanoma = tested on: M14 melanoma
RPMI-8226 leukemia = tested on: RPMI-8226 leukemia
786-0 renal = tested on: 786-0 renal
COLO 205 colon = tested on: COLO 205 colon
HCT-116 colon = tested on: HCT-116 colon

C[C@H](Nc1ccc(C#N)n(C)c1=O)c1cc2cc(Cl)ccc2[nH]c1=O
GI50 (SF-268 CNS): 29.3 µM | TGI (SF-268 CNS): > 100 µM | GI50 (NCI-H522 lung): 27.6 µM | TGI (NCI-H522 lung): > 100 µM | GI50 (MDA-MB-435 melanoma): 30.6 µM | TGI (MDA-MB-435 melanoma): 69.6 µM | GI50 (MALME-3M melanoma): 26.7 µM | TGI (MALME-3M melanoma): 78.8 µM | GI50 (OVCAR-5 ovarian): 60.8 µM | TGI (OVCAR-5 ovarian): > 100 µM | GI50 (RXF 393 renal): 19.1 µM | TGI (RXF 393 renal): 53 µM | GI50 (PC-3 prostate): 19.9 µM | TGI (PC-3 prostate): 76.1 µM | GI50 (NCI-H226 lung): 13 µM | TGI (NCI-H226 lung): 31 µM | GI50 (NCI-H322M lung): 33.2 µM | TGI (NCI-H322M lung): > 100 µM | GI50 (T-47D breast): 22.2 µM | TGI (T-47D breast): 86.9 µM | GI50 (CAKI-1 renal): 31.1 µM | TGI (CAKI-1 renal): > 100 µM | GI50 (K-562 leukemia): 35.1 µM | TGI (K-562 leukemia): > 100 µM | GI50 (CCRF-CEM leukemia): 25.9 µM | TGI (CCRF-CEM leukemia): 60.7 µM | GI50 (MOLT-4 leukemia): 12.4 µM | TGI (MOLT-4 leukemia): 25.1 µM | GI50 (HOP-62 NSCLC): 16.4 µM | TGI (HOP-62 NSCLC): 42.9 µM | GI50 (SNB-19 CNS): 41.6 µM | TGI (SNB-19 CNS): > 100 µM | GI50 (SK-MEL-28 melanoma): 36.2 µM | TGI (SK-MEL-28 melanoma): 94 µM | GI50 (SNB-75 CNS): 20.3 µM | TGI (SNB-75 CNS): 73.7 µM | GI50 (DU-145 prostate): 29.4 µM | TGI (DU-145 prostate): > 100 µM | GI50 (HT29 colon): 42.6 µM | TGI (HT29 colon): > 100 µM | GI50 (HCC-2998 colon): 16.4 µM | TGI (HCC-2998 colon): 52.3 µM | GI50 (OVCAR-4 ovarian): 16.1 µM | TGI (OVCAR-4 ovarian): 49.6 µM | GI50 (MCF7 breast): 24 µM | TGI (MCF7 breast): > 100 µM | GI50 (OVCAR-3 ovarian): 17.8 µM | TGI (OVCAR-3 ovarian): 40.7 µM | GI50 (SF-539 CNS): 32.3 µM | TGI (SF-539 CNS): > 100 µM | GI50 (SF-295 CNS): 13.6 µM | TGI (SF-295 CNS): 36.8 µM | GI50 (UACC-257 melanoma): 20.6 µM | TGI (UACC-257 melanoma): 38.4 µM | GI50 (OVCAR-8 ovarian): 36.2 µM | TGI (OVCAR-8 ovarian): > 100 µM | GI50 (SN12C renal): 31.4 µM | TGI (SN12C renal): > 100 µM | GI50 (HOP-92 NSCLC): 22.8 µM | TGI (HOP-92 NSCLC): 90.1 µM | GI50 (U251 glioblastoma): 31.2 µM | TGI (U251 glioblastoma): > 100 µM | GI50 (TK-10 renal): 32.5 µM | TGI (TK-10 renal): > 100 µM | GI50 (SK-MEL-5 melanoma): 15.4 µM | TGI (SK-MEL-5 melanoma): 29 µM | GI50 (BT-549 breast): 19.4 µM | TGI (BT-549 breast): 54.2 µM | GI50 (SK-OV-3 ovarian): 27.9 µM | TGI (SK-OV-3 ovarian): > 100 µM | GI50 (SW-620 colon): 52.9 µM | TGI (SW-620 colon): > 100 µM | GI50 (NCI/ADR-RES ovarian): 19.8 µM | TGI (NCI/ADR-RES ovarian): 48.6 µM | GI50 (NCI-H460 NSCLC): 19.3 µM | TGI (NCI-H460 NSCLC): 52 µM | GI50 (A498 renal): 29.6 µM | TGI (A498 renal): 98 µM | GI50 (KM12 colon): 39.1 µM | TGI (KM12 colon): > 100 µM | GI50 (UO-31 renal): 33.8 µM | TGI (UO-31 renal): > 100 µM | GI50 (HL-60(TB) leukemia): 20.9 µM | TGI (HL-60(TB) leukemia): 35.3 µM | GI50 (HCT-15 colon): 31.4 µM | TGI (HCT-15 colon): > 100 µM | GI50 (ACHN renal): 30.8 µM | TGI (ACHN renal): > 100 µM | GI50 (SR leukemia): 20.1 µM | TGI (SR leukemia): 39.4 µM | GI50 (A549 NSCLC): 27.7 µM | TGI (A549 NSCLC): > 100 µM | GI50 (EKVX NSCLC): 26.3 µM | TGI (EKVX NSCLC): > 100 µM | GI50 (MDA-MB-231 breast): 34.5 µM | TGI (MDA-MB-231 breast): > 100 µM | GI50 (IGROV1 ovarian): 17 µM | TGI (IGROV1 ovarian): 42.8 µM | GI50 (NCI-H23 lung): 25.3 µM | TGI (NCI-H23 lung): 75.8 µM | GI50 (LOX IMVI melanoma): 26.4 µM | TGI (LOX IMVI melanoma): 70.7 µM | GI50 (MDA-MB-468 breast): 12.7 µM | TGI (MDA-MB-468 breast): 30.1 µM | GI50 (HS 578T breast): 21.4 µM | TGI (HS 578T breast): 74 µM | GI50 (M14 melanoma): 46 µM | TGI (M14 melanoma): > 100 µM | GI50 (RPMI-8226 leukemia): 11.4 µM | TGI (RPMI-8226 leukemia): 24.4 µM | GI50 ([…]-0 renal): 34 µM | TGI (786-0 renal): > 100 µM | GI50 (COLO 205 colon): 61.4 µM | TGI (COLO 205 colon): > 100 µM | GI50 (HCT-116 colon): 29.3 µM | TGI (HCT-116 colon): > 100 µM
